# Patent US20050209336A1, “EP2 receptor agonists” (priority 2003, published 2005)
# Target: T1, human EP1 receptor (Homo sapiens, UniProt P34995)
# T1 construct: expressed in transfected cells
# T1 sequence (P34995 1-402): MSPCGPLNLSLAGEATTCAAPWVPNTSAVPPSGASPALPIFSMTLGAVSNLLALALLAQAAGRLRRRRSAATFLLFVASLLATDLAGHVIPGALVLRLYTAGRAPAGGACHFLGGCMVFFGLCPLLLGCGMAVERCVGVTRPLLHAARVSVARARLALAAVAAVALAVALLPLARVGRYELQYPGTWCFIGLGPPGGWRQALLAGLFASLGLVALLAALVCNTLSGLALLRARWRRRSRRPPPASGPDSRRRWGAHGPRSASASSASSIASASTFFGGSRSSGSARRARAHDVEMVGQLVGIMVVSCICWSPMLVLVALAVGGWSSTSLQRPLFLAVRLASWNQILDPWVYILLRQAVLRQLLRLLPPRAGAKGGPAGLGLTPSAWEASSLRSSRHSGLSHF
# Experiment: Radioligand ([3H]PGE2) competition displacement binding, human EP1 receptor membranes
# Settings: [3H]PGE2 displacement, read-out: pKi EP1 (converted)
# Experimental: Membranes were prepared from cells stably transfected with human EP receptor cDNA. In brief, cells were cultured to confluency, scraped from culture flasks, and centrifuged (800 g, 8 minutes, 4° C.). Cells were twice washed in ice cold homogenisation buffer containing 10 mMTris-HCl, 1 mM EDTA.2Na, 250 mM sucrose, 1 mM PMSF, 0.3 mM indomethacin, pH 7.4, homogenised and re-centrifuged as before. The supernatant was stored on ice and pellets re-homogenised and re-spun. Supernatants were pooled and centrifuged at 40000 g, 10 minutes, 4° C. Resultant membrane pellets were stored at −80° C. until use.
# For assay, membranes expressing human EP4, EP3, EP2 or EP1 receptors were incubated in Millipore (MHVBN45) plates containing assay buffer, radiolabelled [^3H]PGE2 and 0.1 to 10 000 nM concentrations of compounds. Incubations were performed at suitable temperatures and for suitable times to allow equilibrium to be reached. Non-specific binding was determined in the presence of 10 uM PGE2. Bound and free radiolabel was separated by vacuum manifold filtration using appropriate wash buffers, and bound radiolabel was determined by scintillation counting. Constituents of each of the buffers are included in table 4 below.
# The affinity or pKi of each compound for each receptor was calculated from the concentration causing 50% radioligand displacement (IC50) using the Cheng-Prusoff equation: [formula] […]
smiles,measurement,value
"CCCCCC(O)c1ccc(C2CCC(=O)C2CCCCCCC(=O)O)cc1 (racemic) [AH13205, (±)-trans-2-[4-(1-hydroxyhexyl)phenyl]-5-oxo-cyclopentaneheptanoic acid, reference compound]",Ki,10 µM
